In patent US20230111310A1, “CARBOXYLIC ACID DERIVATIVE-SUBSTITUTED IMINO ARYL COMPOUND, PREPARATION METHOD THEREFOR, HERBICIDAL COMPOSITION AND USE THEREOF” (Qingdao Kingagroot Chemical Compound Co., Ltd., priority 2020, published 2023):

What was measured:
Experiment in all cases: Weeding effect in post-emergence stage
Assay type in all cases: in vivo
[1] = test system: Echinochloa crusgalli; settings: for Weeding effect in post-emergence stage, Echinochloa crusgalli (level): fresh weight control rate level; for Weeding effect in post-emergence stage, Echinochloa crusgalli: level of fresh weight growth control rate
Excerpt: (§1) The activity level criteria for plant damage (i.e., growth control rate) are as follows:
(§2) Monocotyledonous and dicotyledonous weed seeds (Descurainia sophia, Capsella bursa-pastoris, Abutilon theophrasti, Galium aparine, Stellaria media, Lithospermum arvense, rorippa indica, Alopecurus aequalis, Alopecurus japonicus, Eleusine indica, Beckmannia syzigachne, Sclerochloa dura, Conyza Canadensis, Phleum paniculatum, Veronica didyma Tenore, Bromus japonicus, Aegilops tauschii, Phalaris arundinacea, Amaranthus retroflexus, Chenopodiaceae, Commelina communis, Sonchus arvensis, Convolvulus arvensis, Cirsium setosum, Bidens tripartita L., Solanum nigrum, Acalypha australis, Digitaria sanguinalis, Echinochloa crusgalli, Setaria viridis, Setaria glauca, Leptochloa chinensis, Monochoria vaginalis, Sagittaria trifolia, Scirpus juncoides, Cyperus rotundus, Cyperus iria, Cyperus difformis, Fimbristylis, Portulaca oleracea, Xanthium sibiricum, Pharbitis nil, etc.) and major crop seeds (wheat, corn, rice, soybean, cotton, oilseed rape, millet, sorghum, potato, sesame, ricinus, etc.) were placed in plastic pots filled with soil, then covered with 0.5-2 cm of soil, allowed to grow in a good greenhouse environment. After 2 weeks of sowing, the test plants were treated in the 2-3 leaf stage. The tested compounds of the present invention were respectively dissolved in acetone, then added with Tween 80 and 1.5 liter/ha of emulsifiable concentrate of methyl oleate as synergist, diluted with a certain amount of water to obtain a solution with a certain concentration, and sprayed with a spray tower onto the plants. After the application, the plants were cultured for 3 weeks in the greenhouse, and then the experimental results of the weeding were counted. The doses of the used compounds were 500, 250, 125, 60, 30, 15, 7.5 g/ha, and the averages were obtained by repeating for three times.

[2] = test system: Digitaria sanguinalis; settings: for Weeding effect in post-emergence stage, Digitaria sanguinalis (level): fresh weight control rate level; for Weeding effect in post-emergence stage, Digitaria sanguinalis: level of fresh weight growth control rate
Excerpt: as §1
as §2, with “The doses of the used compounds were 500, 250, 125, 60, 30, 15, 7.5 g/ha, and the averages were obtained by repeating for three times.” left out

[3] = test system: Abutilon theophrasti; settings: for Weeding effect in post-emergence stage, Abutilon theophrasti (level): fresh weight control rate level; for Weeding effect in post-emergence stage, Abutilon theophrasti: level of fresh weight growth control rate
Excerpt: as §1
as §2, with “The doses of the used compounds were 500, 250, 125, 60, 30, 15, 7.5 g/ha, and the averages were obtained by repeating for three times.” left out

[4] = test system: Alopecurus japonicus; settings: for Weeding effect in post-emergence stage, Alopecurus japonicus (level): fresh weight control rate level; for Weeding effect in post-emergence stage, Alopecurus japonicus: level of fresh weight growth control rate
Excerpt: as §1
as §2, with “The doses of the used compounds were 500, 250, 125, 60, 30, 15, 7.5 g/ha, and the averages were obtained by repeating for three times.” left out

[5] = test system: Setaria viridis; settings: for Weeding effect in post-emergence stage, Setaria viridis (level): fresh weight control rate level; for Weeding effect in post-emergence stage, Setaria viridis: level of fresh weight growth control rate
Excerpt: as §1
as §2, with “The doses of the used compounds were 500, 250, 125, 60, 30, 15, 7.5 g/ha, and the averages were obtained by repeating for three times.” left out

[6] = test system: Eleusine indica; settings: for Weeding effect in post-emergence stage, Eleusine indica (level): fresh weight control rate level; for Weeding effect in post-emergence stage, Eleusine indica: level of fresh weight growth control rate
Excerpt: as §1
as §2, with “The doses of the used compounds were 500, 250, 125, 60, 30, 15, 7.5 g/ha, and the averages were obtained by repeating for three times.” left out

COC(=O)[C@@H](C)O/N=C/c1cc(-n2c(=S)cc(C(F)(F)F)n(C)c2=S)c(F)cc1C(F)(F)F [392(R)]
Weeding effect in post-emergence stage, Echinochloa crusgalli (level) ([1]; Dose 60 g/ha): 5 (Level 5: growth control rate is above 85%) | Weeding effect in post-emergence stage, Digitaria sanguinalis (level) ([2]; Dose 60 g/ha): 5 (Level 5: growth control rate is above 85%) | Weeding effect in post-emergence stage, Abutilon theophrasti (level) ([3]; Dose 60 g/ha): 5 (Level 5: growth control rate is above 85%) | Weeding effect in post-emergence stage, Alopecurus japonicus (level) ([4]; Dose 60 g/ha): 5 (Level 5: growth control rate is above 85%) | Weeding effect in post-emergence stage, Setaria viridis (level) ([5]; Dose 60 g/ha): 5 (Level 5: growth control rate is above 85%) | Weeding effect in post-emergence stage, Eleusine indica (level) ([6]; Dose 60 g/ha): 5 (Level 5: growth control rate is above 85%)

CC(C)SC(=O)C(C)O/N=C/c1cc(-n2c(=O)cc(C(F)(F)F)n(C)c2=O)c(F)cc1Cl (centres unmarked) [Compound 400]
Weeding effect in post-emergence stage, Echinochloa crusgalli (level) ([1]; Dose 15 g/ha): 5 (Level 5: growth control rate is above 85%) | Weeding effect in post-emergence stage, Digitaria sanguinalis (level) ([2]; Dose 15 g/ha): 5 (Level 5: growth control rate is above 85%) | Weeding effect in post-emergence stage, Abutilon theophrasti (level) ([3]; Dose 15 g/ha): 5 (Level 5: growth control rate is above 85%) | Weeding effect in post-emergence stage, Alopecurus japonicus (level) ([4]; Dose 15 g/ha): 4 (Level 4: growth control rate is greater than or equal to 60% and less than 85%) | Weeding effect in post-emergence stage, Setaria viridis (level) ([5]; Dose 15 g/ha): 5 (Level 5: growth control rate is above 85%) | Weeding effect in post-emergence stage, Eleusine indica (level) ([6]; Dose 15 g/ha): 5 (Level 5: growth control rate is above 85%)

CSCOC(=O)C(C)O/N=C/c1cc(-n2c(=O)cc(C(F)(F)F)n(C)c2=O)c(F)cc1Cl (centres unmarked) [Compound 233]
Weeding effect in post-emergence stage, Echinochloa crusgalli ([1]; Dose 15 g/ha): 5 (Level 5: growth control rate is above 85%) | Weeding effect in post-emergence stage, Digitaria sanguinalis ([2]; Dose 15 g/ha): 5 (Level 5: growth control rate is above 85%) | Weeding effect in post-emergence stage, Abutilon theophrasti ([3]; Dose 15 g/ha): 5 (Level 5: growth control rate is above 85%) | Weeding effect in post-emergence stage, Alopecurus japonicus ([4]; Dose 15 g/ha): 5 (Level 5: growth control rate is above 85%) | Weeding effect in post-emergence stage, Setaria viridis ([5]; Dose 15 g/ha): 5 (Level 5: growth control rate is above 85%) | Weeding effect in post-emergence stage, Eleusine indica ([6]; Dose 15 g/ha): 5 (Level 5: growth control rate is above 85%)

COC(=O)C(C)O/N=C/c1cc(-n2c(=O)n(C)c(=S)n(C)c2=O)c(F)cc1Br (centres unmarked) [Compound 83]
Weeding effect in post-emergence stage, Echinochloa crusgalli ([1]; Dose 15 g/ha): 5 (Level 5: growth control rate is above 85%) | Weeding effect in post-emergence stage, Digitaria sanguinalis ([2]; Dose 15 g/ha): 4 (Level 4: growth control rate is greater than or equal to 60% and less than 85%) | Weeding effect in post-emergence stage, Abutilon theophrasti ([3]; Dose 15 g/ha): 5 (Level 5: growth control rate is above 85%) | Weeding effect in post-emergence stage, Alopecurus japonicus ([4]; Dose 15 g/ha): 4 (Level 4: growth control rate is greater than or equal to 60% and less than 85%) | Weeding effect in post-emergence stage, Setaria viridis ([5]; Dose 15 g/ha): 5 (Level 5: growth control rate is above 85%) | Weeding effect in post-emergence stage, Eleusine indica ([6]; Dose 15 g/ha): 5 (Level 5: growth control rate is above 85%)

COC(=O)C(OC)OC(=O)C(C)O/N=C/c1cc(-n2c(=O)cc(C(F)(F)F)n(C)c2=O)c(F)cc1Cl (centres unmarked) [Compound 245]
Weeding effect in post-emergence stage, Echinochloa crusgalli ([1]; Dose 30 g/ha): 5 (Level 5: growth control rate is above 85%) | Weeding effect in post-emergence stage, Digitaria sanguinalis ([2]; Dose 30 g/ha): 5 (Level 5: growth control rate is above 85%) | Weeding effect in post-emergence stage, Abutilon theophrasti ([3]; Dose 30 g/ha): 5 (Level 5: growth control rate is above 85%) | Weeding effect in post-emergence stage, Alopecurus japonicus ([4]; Dose 30 g/ha): 5 (Level 5: growth control rate is above 85%) | Weeding effect in post-emergence stage, Setaria viridis ([5]; Dose 30 g/ha): 5 (Level 5: growth control rate is above 85%) | Weeding effect in post-emergence stage, Eleusine indica ([6]; Dose 30 g/ha): 5 (Level 5: growth control rate is above 85%)

COC(=O)C(C)O/N=C/c1cc(-n2c(=O)n(C)c(=S)n(C)c2=O)c(F)cc1C(F)(F)F (racemic) [Compound 85]
Weeding effect in post-emergence stage, Echinochloa crusgalli ([1]; Dose 15 g/ha): 5 (Level 5: growth control rate is above 85%) | Weeding effect in post-emergence stage, Digitaria sanguinalis ([2]; Dose 15 g/ha): 5 (Level 5: growth control rate is above 85%) | Weeding effect in post-emergence stage, Abutilon theophrasti ([3]; Dose 15 g/ha): 5 (Level 5: growth control rate is above 85%) | Weeding effect in post-emergence stage, Setaria viridis ([5]; Dose 15 g/ha): 5 (Level 5: growth control rate is above 85%) | Weeding effect in post-emergence stage, Eleusine indica ([6]; Dose 15 g/ha): 5 (Level 5: growth control rate is above 85%)

CC(O/N=C/c1cc(-n2c(=O)n(C)c(=S)n(C)c2=O)c(F)cc1Cl)C(=O)OCc1cccnc1 (centres unmarked) [Compound 59]
Weeding effect in post-emergence stage, Echinochloa crusgalli ([1]; Dose 15 g/ha): 5 (Level 5: growth control rate is above 85%) | Weeding effect in post-emergence stage, Digitaria sanguinalis ([2]; Dose 15 g/ha): 5 (Level 5: growth control rate is above 85%) | Weeding effect in post-emergence stage, Abutilon theophrasti ([3]; Dose 15 g/ha): 5 (Level 5: growth control rate is above 85%) | Weeding effect in post-emergence stage, Setaria viridis ([5]; Dose 15 g/ha): 5 (Level 5: growth control rate is above 85%) | Weeding effect in post-emergence stage, Eleusine indica ([6]; Dose 15 g/ha): 5 (Level 5: growth control rate is above 85%)

COC(=O)C(C)O/N=C/c1cc(-n2c(=O)cc(C(F)(F)F)n(N)c2=O)c(F)cc1Cl (centres unmarked) [Control compound E, reference compound]
Weeding effect in post-emergence stage, Echinochloa crusgalli (level) ([1]; Dose 15 g/ha): 4 (Level 4: growth control rate is greater than or equal to 60% and less than 85%) | Weeding effect in post-emergence stage, Digitaria sanguinalis (level) ([2]; Dose 15 g/ha): 3 (Level 3: growth control rate is greater than or equal to 40% and less than 60%) | Weeding effect in post-emergence stage, Alopecurus japonicus (level) ([4]; Dose 15 g/ha): 3 (Level 3: growth control rate is greater than or equal to 40% and less than 60%) | Weeding effect in post-emergence stage, Setaria viridis (level) ([5]; Dose 15 g/ha): 4 (Level 4: growth control rate is greater than or equal to 60% and less than 85%) | Weeding effect in post-emergence stage, Eleusine indica (level) ([6]; Dose 15 g/ha): 3 (Level 3: growth control rate is greater than or equal to 40% and less than 60%)

CCC[C@@H](O/N=C/c1cc(-n2c(=O)n(C)c(=S)n(C)c2=O)c(F)cc1Cl)C(=O)OCC [74(R)]
Weeding effect in post-emergence stage, Echinochloa crusgalli ([1]; Dose 15 g/ha): 5 (Level 5: growth control rate is above 85%) | Weeding effect in post-emergence stage, Digitaria sanguinalis ([2]; Dose 15 g/ha): 4 (Level 4: growth control rate is greater than or equal to 60% and less than 85%) | Weeding effect in post-emergence stage, Abutilon theophrasti ([3]; Dose 15 g/ha): 5 (Level 5: growth control rate is above 85%) | Weeding effect in post-emergence stage, Setaria viridis ([5]; Dose 15 g/ha): 5 (Level 5: growth control rate is above 85%) | Weeding effect in post-emergence stage, Eleusine indica ([6]; Dose 15 g/ha): 5 (Level 5: growth control rate is above 85%)

CCCC(O/N=C/c1cc(-n2c(=O)n(C)c(=S)n(C)c2=O)c(F)cc1Cl)C(=O)OCC (centres unmarked) [Compound 74]
Weeding effect in post-emergence stage, Echinochloa crusgalli ([1]; Dose 15 g/ha): 5 (Level 5: growth control rate is above 85%) | Weeding effect in post-emergence stage, Digitaria sanguinalis ([2]; Dose 15 g/ha): 4 (Level 4: growth control rate is greater than or equal to 60% and less than 85%) | Weeding effect in post-emergence stage, Abutilon theophrasti ([3]; Dose 15 g/ha): 5 (Level 5: growth control rate is above 85%) | Weeding effect in post-emergence stage, Setaria viridis ([5]; Dose 15 g/ha): 5 (Level 5: growth control rate is above 85%) | Weeding effect in post-emergence stage, Eleusine indica ([6]; Dose 15 g/ha): 4 (Level 4: growth control rate is greater than or equal to 60% and less than 85%)

C[C@@H](O/N=C/c1cc(-n2c(=O)c(CCO)c(C(F)(F)F)n(C)c2=O)c(F)cc1Cl)C(=O)OCCO [478(R)]
Weeding effect in post-emergence stage, Abutilon theophrasti (level) ([3]; Dose 60 g/ha): 5 (Level 5: growth control rate is above 85%)
